The NIST ThermoML archive (doi:10.1021/acs.jced.8b00812)

Conditions: Liquid; for viscosity: Capillary tube (Ostwald / Ubbelohde) method; for mass density: Vibrating tube method

CCCCCCCCCO [nonan-1-ol]
Conditions | mass density [kg/m3] | viscosity [mPa·s]
298.15 K, 1990 kPa | 825.5 | 9.285
298.15 K, 3990 kPa | 826.7 | 9.511
298.15 K, 6000 kPa | 828 | 9.746
298.15 K, 8010 kPa | 829.2 | 9.958
298.15 K, 10010 kPa | 830.5 | 10.17
298.15 K, 13000 kPa | 832.2 | 10.51
298.15 K, 16000 kPa | 833.9 | 10.85
298.15 K, 19010 kPa | 835.5 | 11.2
298.15 K, 21990 kPa | 837.1 | 11.56
298.15 K, 25000 kPa | 838.7 | 11.93
298.15 K, 28020 kPa | 840.2 | 12.28
298.15 K, 30020 kPa | 841.1 | 12.51
303.14 K, 27980 kPa | 836.9 | 11.13
303.15 K, 2010 kPa | 822 | 8.424
303.15 K, 4010 kPa | 823.2 | 8.633
303.15 K, 6020 kPa | 824.5 | 8.843
303.15 K, 8030 kPa | 825.7 | 9.053
303.15 K, 9990 kPa | 826.9 | 9.257
303.15 K, 12980 kPa | 828.7 | 9.568
303.15 K, 15970 kPa | 830.4 | 9.88
303.15 K, 19020 kPa | 832.1 | 10.2
303.15 K, 22010 kPa | 833.8 | 10.51
303.15 K, 25000 kPa | 835.4 | 10.82
303.15 K, 30000 kPa | 837.9 | 11.34
313.15 K, 2000 kPa | 814.9 | 6.381
313.15 K, 3970 kPa | 816.3 | 6.536
313.15 K, 6020 kPa | 817.6 | 6.699
313.15 K, 7990 kPa | 818.9 | 6.854
313.15 K, 10020 kPa | 820.2 | 7.015
313.15 K, 13000 kPa | 822 | 7.25
313.15 K, 16000 kPa | 823.8 | 7.487
313.15 K, 18980 kPa | 825.6 | 7.723
313.15 K, 22000 kPa | 827.3 | 7.961
313.15 K, 25000 kPa | 829 | 8.198
313.15 K, 28010 kPa | 830.6 | 8.436
313.15 K, 29990 kPa | 831.7 | 8.592
323.15 K, 2010 kPa | 808.3 | 4.745
323.15 K, 4020 kPa | 809.7 | 4.859
323.15 K, 6020 kPa | 811 | 4.976
323.15 K, 8010 kPa | 812.3 | 5.09
323.15 K, 10010 kPa | 813.7 | 5.202
323.15 K, 13010 kPa | 815.7 | 5.376
323.15 K, 16010 kPa | 817.5 | 5.539
323.15 K, 19000 kPa | 819.3 | 5.716
323.15 K, 22010 kPa | 821.1 | 5.892
323.15 K, 25000 kPa | 822.9 | 6.07
323.15 K, 28000 kPa | 824.6 | 6.247
323.15 K, 30000 kPa | 825.7 | 6.373

CCCCCCCCO [octan-1-ol]
Conditions | mass density [kg/m3] | viscosity [mPa·s]
298.15 K, 2000 kPa | 823.6 | 7.363
298.15 K, 4010 kPa | 824.8 | 7.542
298.15 K, 6000 kPa | 826 | 7.702
298.15 K, 8000 kPa | 827.2 | 7.865
298.15 K, 10000 kPa | 828.4 | 8.031
298.15 K, 13010 kPa | 830.1 | 8.3
298.15 K, 16010 kPa | 831.8 | 8.568
298.15 K, 18990 kPa | 833.4 | 8.825
298.15 K, 22010 kPa | 835 | 9.112
298.15 K, 25010 kPa | 836.6 | 9.397
298.15 K, 28010 kPa | 838.3 | 9.668
298.15 K, 30010 kPa | 839.3 | 9.866
303.15 K, 1990 kPa | 819.4 | 6.327
303.15 K, 3990 kPa | 820.6 | 6.481
303.15 K, 5980 kPa | 821.9 | 6.632
303.15 K, 10010 kPa | 824.4 | 6.941
303.15 K, 16020 kPa | 827.9 | 7.4
303.15 K, 19030 kPa | 829.7 | 7.63
303.15 K, 25000 kPa | 833 | 8.087
303.15 K, 29980 kPa | 835.6 | 8.468
303.16 K, 7980 kPa | 823.1 | 6.785
303.16 K, 13000 kPa | 826.2 | 7.169
303.16 K, 22010 kPa | 831.3 | 7.858
303.16 K, 28000 kPa | 834.6 | 8.316
313.15 K, 1970 kPa | 812.3 | 4.516
313.15 K, 4000 kPa | 813.6 | 4.627
313.15 K, 6010 kPa | 815 | 4.737
313.15 K, 8000 kPa | 816.3 | 4.846
313.15 K, 10010 kPa | 817.5 | 4.955
313.15 K, 13030 kPa | 819.4 | 5.12
313.15 K, 15980 kPa | 821.2 | 5.281
313.15 K, 18990 kPa | 823 | 5.446
313.15 K, 21990 kPa | 824.8 | 5.61
313.15 K, 25000 kPa | 826.5 | 5.774
313.15 K, 27980 kPa | 828.2 | 5.937
313.15 K, 29990 kPa | 829.3 | 6.047
323.15 K, 2010 kPa | 805.6 | 3.262
323.15 K, 4010 kPa | 807 | 3.348
323.15 K, 6010 kPa | 808.4 | 3.427
323.15 K, 8000 kPa | 809.7 | 3.499
323.15 K, 10010 kPa | 811.1 | 3.573
323.15 K, 13020 kPa | 813 | 3.688
323.15 K, 16020 kPa | 814.9 | 3.797
323.15 K, 19010 kPa | 816.8 | 3.91
323.15 K, 22000 kPa | 818.6 | 4.03
323.15 K, 25010 kPa | 820.4 | 4.149
323.15 K, 28010 kPa | 822.1 | 4.264
323.15 K, 30020 kPa | 823.3 | 4.343

CCCCCO [pentan-1-ol]
Conditions | mass density [kg/m3] | viscosity [mPa·s]
298.15 K, 2000 kPa | 813 | 3.59
298.15 K, 4000 kPa | 814.4 | 3.66
298.15 K, 6000 kPa | 815.8 | 3.732
298.15 K, 8010 kPa | 817.1 | 3.796
298.15 K, 10000 kPa | 818.5 | 3.869
298.15 K, 13000 kPa | 820.4 | 3.975
298.15 K, 16000 kPa | 822.3 | 4.081
298.15 K, 19010 kPa | 824.1 | 4.192
298.15 K, 22000 kPa | 825.9 | 4.299
298.15 K, 25000 kPa | 827.6 | 4.409
298.15 K, 27990 kPa | 829.4 | 4.507
298.15 K, 29980 kPa | 830.4 | 4.577
303.15 K, 19000 kPa | 820.3 | 3.757
303.15 K, 27980 kPa | 825.6 | 4.041
303.16 K, 1980 kPa | 808.8 | 3.219
303.16 K, 3980 kPa | 810.2 | 3.282
303.16 K, 6010 kPa | 811.7 | 3.346
303.16 K, 8020 kPa | 813 | 3.41
303.16 K, 10030 kPa | 814.4 | 3.474
303.16 K, 12990 kPa | 816.4 | 3.567
303.16 K, 15980 kPa | 818.4 | 3.662
303.16 K, 22010 kPa | 822.1 | 3.852
303.16 K, 25000 kPa | 823.9 | 3.947
303.16 K, 29990 kPa | 826.7 | 4.105
313.15 K, 1990 kPa | 800.6 | 2.438
313.15 K, 4000 kPa | 802.2 | 2.486
313.15 K, 5980 kPa | 803.7 | 2.533
313.15 K, 7980 kPa | 805.1 | 2.581
313.15 K, 10020 kPa | 806.6 | 2.629
313.15 K, 13010 kPa | 808.7 | 2.701
313.15 K, 19020 kPa | 812.8 | 2.845
313.15 K, 21980 kPa | 814.7 | 2.916
313.15 K, 30020 kPa | 819.6 | 3.109
313.16 K, 15980 kPa | 810.8 | 2.772
313.16 K, 24990 kPa | 816.6 | 2.988
313.16 K, 28000 kPa | 818.4 | 3.06
323.15 K, 2000 kPa | 793.5 | 1.833
323.15 K, 4000 kPa | 795 | 1.866
323.15 K, 6000 kPa | 796.7 | 1.901
323.15 K, 8000 kPa | 798.2 | 1.935
323.15 K, 10000 kPa | 799.6 | 1.969
323.15 K, 13000 kPa | 801.9 | 2.022
323.15 K, 16000 kPa | 804 | 2.078
323.15 K, 19000 kPa | 806.1 | 2.133
323.15 K, 22000 kPa | 808.2 | 2.189
323.15 K, 25000 kPa | 810.2 | 2.244
323.15 K, 27990 kPa | 812.1 | 2.299
323.15 K, 29990 kPa | 813.4 | 2.335
